According to article PMC8116058, “De novo macrocyclic peptides dissect energy coupling of a heterodimeric ABC transporter by multimode allosteric inhibition” (eLife, 2021):
Positions of bridges follow the written chain, without caps; N, C: chain ends. Non-standard residues stand in square brackets, D forms with d. Residues, ends and D or L forms follow the SMILES beside them. *: point of attachment. 5FAM = O=C1OC2(c3ccc(O)cc3Oc3cc(O)ccc32)c2ccc(C(=O)*)cc21; βAla = NCCC(=O)O

Legend:
TmrAB in liposomes = experiment: Filter-based transport assay, inhibition of C4F translocation; assay type: biochemical, Thermus thermophilus; conditions: C4F 3 µM, CP^F 1 µM, 15 min 45°C; for Transported C4F peptide: TmrAB 0.4 µM
Description: In order to investigate the functional impact of CPs, we examined the effect of the CPs on ATP hydrolysis and substrate transport of TmrAB (Figure 3A). We reconstituted TmrAB in liposomes and first assayed the ATPase activity. […] We next set out to investigate peptide transport by TmrAB using a filter-based transport assay. To investigate whether CPs are recognized as substrates by TmrAB, we added fluorescein-labeled CP^Fs and examined ATP-dependent translocation. In contrast to the linear substrate peptide C4F, none of the CP^Fs were transported by TmrAB (Figure 3C). Next, we examined ATP-dependent transport of C4F peptides in the presence and absence of the different CPs.
Figure 3. CP^Fs are potent inhibitors of ATP turnover and substrate transport. (A) Experimental scheme of ATP hydrolysis and peptide transport by TmrAB. (B) CP^Fs inhibit ATP hydrolysis. TmrAB in liposomes (100 nM) was incubated with ATP (2 mM, traced with [γ^32P]-ATP), and MgCl2 (5 mM) in the presence and absence of CP^Fs (1 µM) for 10 min at 45°C. Autohydrolysis was determined in the absence of TmrAB, and background turnover was conducted in the presence of EDTA (10 mM). Release of [γ^32P] was quantified by thin layer chromatography. (C) CP^Fs are not transported by TmrAB. TmrAB (0.4 µM) reconstituted in liposomes was incubated with C4F peptide (3 µM) or CP^Fs (1 µM) in the presence of ATP/ADP (3 mM) and MgCl2 (5 mM) for 5 min at 45°C. Since CP^Fs were dissolved in maximal 0.5% (v/v) of DMSO, C4F plus 0.5% DMSO served as control. Proteoliposomes were washed on filter plates, and transported peptides were quantified at λex/em = 485/520 nm. (D) Inhibition of substrate translocation. TmrAB in liposomes (0.4 µM) were incubated with C4F peptide (3 µM), ATP/ADP (3 mM), and MgCl2 (5 mM) in the presence and absence of CP^Fs (1 µM) for 15 min at 45°C. Transported peptides were quantified as described in (C). In (B–C), mean values ± SD (n = 3) are shown. Figure 3—source data 1. Source data for Figure 3.
TmrAB in liposomes (0.4 µM) were incubated with ATP/ADP (3 mM), MgCl2 (5 mM), C4F peptide (3 µM), and CP^Fs (1 µM) for 15 min at 45°C. […] Proteoliposomes were solubilized by adding SDS (1% [v/v]) in transport buffer for 10 min at 20°C. Transported peptides were quantified at λex/em = 485/520 nm using a microplate reader (CLARIOstar, BMG LABTECH).

TmrAB = system: TmrAB
Method: In order to analyze the binding affinity and specificity of CPs to TmrAB, we established a fluorescence polarization assay. Fluorescein-labeled CP^Fs were incubated with increasing concentrations of TmrAB reconstituted in liposomes at a protein-to-lipid ratio of 1:20 (w/w). […] To address whether the CPs recognize a linear or non-linear epitope, we examined the binding of CP^Fs after disrupting the quaternary and tertiary structure of TmrAB complexes by adding anionic detergent SDS.
Figure 2. […] (A, B) Equilibrium binding analysis. Fluorescence anisotropy of CP^Fs (50 nM) was determined at λex/em = 485/520 nm with increasing concentrations of TmrAB which was reconstituted in liposomes. TmrAB concentrations were calculated based on the random (50/50%) orientation in proteoliposomes ([Stefan et al., 2020]). […] The difference in fluorescence polarization was normalized to free (0%) and 100% bound CP^F. Mean values ± SD (n = 3) are shown, and data were analyzed by a one-site binding model. […] Amounts of TmrA in input (I), flow-through (FT), wash fraction (W), and eluate (E) were analyzed by SDS-PAGE and immunoblotting (α-His). […] Bound TmrAB was eluted in SDS loading buffer and analyzed by SDS-PAGE (silver stain). […] TmrAB in input (I), flow-through (FT), washing fraction (W), and eluate (E) was analyzed by SDS-PAGE and immunoblotting (α-His). […] CP^F-TmrAB complexes were analyzed by gel filtration. […]

[1] = ADP 3 mM (background), without CP 0.01

SMILES	Transported C4F peptide (TmrAB in liposomes; [1]) [µmol·g/min]	Transported C4F peptide (TmrAB in liposomes; ATP 3 mM, without CP 1.66) [µmol·g/min]	Effect on ATP-dependent C4F peptide translocation (TmrAB in liposomes)	Isolation of TmrAB from solubilized E. coli membranes (TmrAB)
CC(C)[C@@H]1NC(=O)[C@H](Cc2ccccc2)NC(=O)[C@@H]2CCCN2C(=O)[C@H](CC(N)=O)NC(=O)[C@H](Cc2c[nH]c3ccccc23)NC(=O)[C@H](C(C)C)NC(=O)[C@H](Cc2ccc(O)cc2)NC(=O)[C@H](Cc2ccccc2)NC(=O)[C@@H](Cc2ccc(O)cc2)NC(=O)CSC[C@@H](C(=O)NCC(=O)N[C@@H](CO)C(=O)NCCC(=O)NCCC(=O)N[C@@H](CCCNC(=N)N)C(=O)N[C@@H](CCCCNC(=O)c2ccc3c(c2)C(=O)OC32c3ccc(O)cc3Oc3cc(O)ccc32)C(N)=O)NC(=O)[C@H](CCCCN)NC(=O)[C@H](Cc2ccccc2)NC1=O [CP14] ({CH2CO}-[dY]FYVWNPFVFKCGS[βAla][βAla]RK(5FAM)-NH2; thioether N-12; C-terminus assumed)	0.15	0.41	only caused a partial inhibition	isolate intact TmrAB complexes
CC[C@H](C)[C@@H]1NC(=O)[C@H]([C@@H](C)O)NC(=O)[C@H](CC(C)C)NC(=O)[C@H](Cc2c[nH]c3ccccc23)NC(=O)[C@H](Cc2ccccc2)NC(=O)[C@H](CC(N)=O)NC(=O)[C@H](CCC(=O)O)NC(=O)[C@H](CC(C)C)NC(=O)[C@H](CS)NC(=O)[C@H](Cc2c[nH]cn2)NC(=O)[C@H](CO)NC(=O)[C@@H](Cc2ccc(O)cc2)NC(=O)CSC[C@@H](C(=O)NCC(=O)N[C@@H](CO)C(=O)NCCC(=O)NCCC(=O)N[C@@H](CCCNC(=N)N)C(=O)N[C@@H](CCCCNC(=O)c2ccc3c(c2)C(=O)OC32c3ccc(O)cc3Oc3cc(O)ccc32)C(N)=O)NC(=O)[C@H](CC(C)C)NC1=O [CP6] ({CH2CO}-[dY]SHCLENFWLTILCGS[βAla][βAla]RK(5FAM)-NH2; thioether N-14)	0.37	0.29	completely blocked peptide translocation	–
CC(C)C[C@@H]1NC(=O)[C@H](Cc2ccccc2)NC(=O)CNC(=O)[C@H](CO)NC(=O)[C@H](Cc2ccccc2)NC(=O)[C@H](CC(=O)O)NC(=O)[C@@H]2CCCN2C(=O)[C@H]([C@@H](C)O)NC(=O)[C@@H](Cc2ccc(O)cc2)NC(=O)CSC[C@@H](C(=O)NCC(=O)N[C@@H](CO)C(=O)NCCC(=O)NCCC(=O)N[C@@H](CCCNC(=N)N)C(=O)N[C@@H](CCCCNC(=O)c2ccc3c(c2)C(=O)OC32c3ccc(O)cc3Oc3cc(O)ccc32)C(N)=O)NC(=O)[C@H](C)NC(=O)[C@H](CC(N)=O)NC(=O)[C@H](CCCNC(=N)N)NC(=O)[C@H](CC(C)C)NC(=O)[C@H](Cc2ccccc2)NC(=O)[C@H](C)NC1=O [CP12] ({CH2CO}-[dY]TPDFSGFLAFLRNACGS[βAla][βAla]RK(5FAM)-NH2; thioether N-16)	0.41	0.41	completely blocked peptide translocation	–
CC[C@H](C)[C@@H]1NC(=O)[C@H](Cc2c[nH]c3ccccc23)NC(=O)[C@H](CC(N)=O)NC(=O)[C@H](C)NC(=O)[C@H](CO)NC(=O)[C@@H]2CCCN2C(=O)[C@H](CC(=O)O)NC(=O)[C@@H](Cc2ccc(O)cc2)NC(=O)CSC[C@@H](C(=O)NCC(=O)N[C@@H](CO)C(=O)NCCC(=O)NCCC(=O)N[C@@H](CCCNC(=N)N)C(=O)N[C@@H](CCCCNC(=O)c2ccc3c(c2)C(=O)OC32c3ccc(O)cc3Oc3cc(O)ccc32)C(N)=O)NC(=O)[C@H]([C@@H](C)O)NC(=O)[C@H](CC(C)C)NC(=O)[C@H](CC(C)C)NC(=O)[C@H](C(C)C)NC(=O)[C@H](CC(C)C)NC1=O [CP13] ({CH2CO}-[dY]DPSANWILVLLTCGS[βAla][βAla]RK(5FAM)-NH2; thioether N-14; C-terminus assumed)	0.25	0.41	only caused a partial inhibition	isolate intact TmrAB complexes
